Measured values published in patent US20060111378A1, “Substituted 2-anilinopyrimidines as cell-cycle-kinase or receptor-tyrosine-kinase inhibitors, their production and use as pharmaceutical agents” (priority 2004, published 2006).

Legend:
[1] = molecular target: Human Carboanhydrase-2 (Homo sapiens, UniProt P00918); assay: Carboanhydrase assay; format: biochemical; settings: 4-nitrophenyl acetate hydrolysis, 60 minutes; read-out: Inhibition of Human Carboanhydrase-2 IC50
Experimental: 2 μl of the test compounds, dissolved in DMSO (100× the final concentration), in a concentration range of 0.03-10 μm (final), was pipetted as 4× determinations into the holes of a 96-hole microtiter plate. Holes that contained the solvent without test compounds were used as reference values (1. Holes without carboanhydrase for correction of the non-enzymatic hydrolysis of the substrate, and 2. Holes with carboanhydrase for determining the activity of the non-inhibited enzyme).
188 μl of assay buffer (10 mmol of Tris/HCl, pH 7.4, 80 mmol of NaCl), with or without 3 units/hole on carboanhydrase I or II, was pipetted into the holes of the microtiter plate.

[2] = molecular target: T1, CDK1/CycB (Homo sapiens, UniProt P06493); assay: CDK1/CycB kinase assay; format: biochemical; settings: histone IIIS substrate, 0.5 μm ATP
T1 construct: GST; purchased ProQinase GmbH, Freiburg; host or cells: baculovirus-infected insect cells (Sf9)
T1 sequence (P06493 whole entry): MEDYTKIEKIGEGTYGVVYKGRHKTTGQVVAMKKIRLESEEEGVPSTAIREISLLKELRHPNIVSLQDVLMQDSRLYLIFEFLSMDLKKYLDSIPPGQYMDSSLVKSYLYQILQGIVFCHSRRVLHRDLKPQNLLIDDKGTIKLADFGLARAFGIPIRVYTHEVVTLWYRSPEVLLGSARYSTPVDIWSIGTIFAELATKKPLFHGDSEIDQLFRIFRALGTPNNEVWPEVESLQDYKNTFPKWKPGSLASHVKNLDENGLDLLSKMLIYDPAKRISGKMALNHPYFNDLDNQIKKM
T1 sequence (P14635 whole entry partner): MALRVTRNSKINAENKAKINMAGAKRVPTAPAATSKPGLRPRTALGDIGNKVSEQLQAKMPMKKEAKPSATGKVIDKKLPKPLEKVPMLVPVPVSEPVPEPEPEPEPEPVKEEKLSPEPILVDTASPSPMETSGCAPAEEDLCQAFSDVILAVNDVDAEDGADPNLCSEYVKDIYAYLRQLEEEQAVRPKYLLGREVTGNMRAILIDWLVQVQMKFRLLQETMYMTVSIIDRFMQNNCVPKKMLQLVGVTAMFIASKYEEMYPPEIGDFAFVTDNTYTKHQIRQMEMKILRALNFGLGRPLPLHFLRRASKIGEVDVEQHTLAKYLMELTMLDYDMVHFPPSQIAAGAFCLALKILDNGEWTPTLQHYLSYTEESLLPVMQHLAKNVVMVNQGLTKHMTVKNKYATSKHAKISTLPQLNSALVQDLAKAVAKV
Experimental: Recombinant CDK1- and CycB-GST-fusion proteins, purified from baculovirus-infected insect cells (Sf9), were purchased from ProQinase GmbH, Freiburg. Histone IIIS, used as a kinase substrate, is available commercially from the Sigma Company.
(§1) CDK1/CycB (200 ng/measuring point) was incubated for 10 minutes at 22° C. in the presence of various concentrations of test substances (0 μm, as well as within the range of 0.01-100 μm) in assay buffer [50 mmol of tris/HCl, pH 8.0, 10 mmol of MgCl2, 0.1 mmol of Na ortho-vanadate, 1.0 mmol of dithiothreitol, 0.5 μm of adenosine triphosphate (ATP), 10 μg/measuring point of histone IIIS, 0.2 μCi/measuring point of 33P-gamma ATP, 0.05% NP40, 1.25% dimethyl sulfoxide]. The reaction was stopped by adding EDTA solution (250 mmol, pH 8.0, 15 μl/measuring point).
(§2) From each reaction batch, 15 μl was applied to P30 filter strips (Wallac Company), and non-incorporated 33P-ATP was removed by subjecting the filter strips to three washing cycles for 10 minutes each in 0.5% phosphoric acid. After the filter strips were dried for one hour at 70° C., the filter strips were covered with scintillator strips (MeltiLex™ A, Wallac Company) and baked for one hour at 90° C. The amount of incorporated 33P (substrate phosphorylation) was determined by scintillation measurement in a gamma-radiation measuring device (Wallac).

[3] = tested on: DU 145, hormone-independent human prostate cancer cells; assay: Proliferation assay DU145; format: cell-based; settings: DU-145, 96 h, 4 days, crystal violet
Description: (§3) Cultivated human tumor cells (MCF7, hormone-independent human breast cancer cells, related to ATCC HTB22; NCI-H460, human non-small-cell lung cancer cells, ATCC HTB-177, DU 145, hormone-independent human prostate cancer cells, ATCC HTB-81; MaTu-MDR, hormone-independent, multiple pharmaceutical agent-resistant human breast cancer cells, EPO-GmbH, Berlin) were flattened out at a density of about 3000-5000 cells/measuring point, depending on the growth rate of the respective cells, in a 96-well multititer plate in 200 μl of the corresponding growth medium. After 24 hours, the cells of one plate (zero-point plate) were colored with crystal violet (see below), while the medium of the other plates was replaced by fresh culture medium (200 μl), to which the test substances were added in various concentrations (0 μm, as well as in the range of 0.01-30 μm; the final concentration of the solvent dimethyl sulfoxide was 0.5%). The cells were incubated for 4 days in the presence of test substances. The cell proliferation was determined by coloring the cells with crystal violet: the cells were fixed by adding 20 μl/measuring point of an 11% glutaric aldehyde solution for 15 minutes at room temperature. After three washing cycles of the fixed cells with water, the plates were dried at room temperature. The cells were colored by adding 100 μl/measuring point of a 0.1% crystal violet solution (the pH was set at 3 by adding acetic acid). After three washing cycles of the colored cells with water, the plates were dried at room temperature. The dye was dissolved by adding 100 μl/measuring point of a 10% acetic acid solution. The extinction was determined by photometry at a wavelength of 595 nm. The change of cell growth, in percent, was calculated by normalization of the measured values to the extinction values of the zero-point plate (=0%) and the extinction of the untreated (0 μm) cells (=100%).

[4] = tested on: MaTu-ADR; assay: Proliferation assay MaTu-ADR; format: cell-based; settings: Homo sapiens, 96 h; MaTu-ADR cells, 4 days, crystal violet
Description: as §3

[5] = tested on: NCI-H460, human non-small-cell lung cancer cells; assay: Proliferation assay H460; format: cell-based; settings: NCI-H460, 96 h, 4 days, crystal violet
Description: as §3

[6] = tested on: MCF7, hormone-independent human breast cancer cells; assay: Proliferation assay MCF7; format: cell-based; settings: 96 h, 4 days, crystal violet
Description: as §3

[7] = molecular target: T2, CDK2/CycE (Homo sapiens, UniProt P24941); assay: CDK2/CycE kinase assay; format: biochemical; settings: histone IIIS substrate, 0.5 μm ATP
T2 construct: GST; purchased ProQinase GmbH, Freiburg; host or cells: baculovirus-infected insect cells (Sf9)
Experimental: Recombinant CDK2- and CycE-GST-fusion proteins, purified from baculovirus-infected insect cells (Sf9), were purchased by ProQinase GmbH, Freiburg. Histone IIIs, which was used as a kinase substrate, was purchased by the Sigma Company.
as §1, with “CDK2/CycE (50” for “CDK1/CycB (200”, “^33P-gamma” for “33P-gamma”, “12.5%” for “1.25%”
as §2, with “^33P-ATP” for “33P-ATP”, “^33P” for “33P”

[8] = molecular target: T3, VEGF receptor tyrosine kinase-2 (Homo sapiens, UniProt P35968); assay: VEGF receptor-2 kinase assay; format: biochemical; settings: poly-(Glu4Tyr) substrate, 8 μmol ATP; read-out: VEGF-R2 IC50
T3 construct: GST; made in house; host or cells: baculovirus-infected insect cells (Sf9)
T3 sequence (P35968 20-1356): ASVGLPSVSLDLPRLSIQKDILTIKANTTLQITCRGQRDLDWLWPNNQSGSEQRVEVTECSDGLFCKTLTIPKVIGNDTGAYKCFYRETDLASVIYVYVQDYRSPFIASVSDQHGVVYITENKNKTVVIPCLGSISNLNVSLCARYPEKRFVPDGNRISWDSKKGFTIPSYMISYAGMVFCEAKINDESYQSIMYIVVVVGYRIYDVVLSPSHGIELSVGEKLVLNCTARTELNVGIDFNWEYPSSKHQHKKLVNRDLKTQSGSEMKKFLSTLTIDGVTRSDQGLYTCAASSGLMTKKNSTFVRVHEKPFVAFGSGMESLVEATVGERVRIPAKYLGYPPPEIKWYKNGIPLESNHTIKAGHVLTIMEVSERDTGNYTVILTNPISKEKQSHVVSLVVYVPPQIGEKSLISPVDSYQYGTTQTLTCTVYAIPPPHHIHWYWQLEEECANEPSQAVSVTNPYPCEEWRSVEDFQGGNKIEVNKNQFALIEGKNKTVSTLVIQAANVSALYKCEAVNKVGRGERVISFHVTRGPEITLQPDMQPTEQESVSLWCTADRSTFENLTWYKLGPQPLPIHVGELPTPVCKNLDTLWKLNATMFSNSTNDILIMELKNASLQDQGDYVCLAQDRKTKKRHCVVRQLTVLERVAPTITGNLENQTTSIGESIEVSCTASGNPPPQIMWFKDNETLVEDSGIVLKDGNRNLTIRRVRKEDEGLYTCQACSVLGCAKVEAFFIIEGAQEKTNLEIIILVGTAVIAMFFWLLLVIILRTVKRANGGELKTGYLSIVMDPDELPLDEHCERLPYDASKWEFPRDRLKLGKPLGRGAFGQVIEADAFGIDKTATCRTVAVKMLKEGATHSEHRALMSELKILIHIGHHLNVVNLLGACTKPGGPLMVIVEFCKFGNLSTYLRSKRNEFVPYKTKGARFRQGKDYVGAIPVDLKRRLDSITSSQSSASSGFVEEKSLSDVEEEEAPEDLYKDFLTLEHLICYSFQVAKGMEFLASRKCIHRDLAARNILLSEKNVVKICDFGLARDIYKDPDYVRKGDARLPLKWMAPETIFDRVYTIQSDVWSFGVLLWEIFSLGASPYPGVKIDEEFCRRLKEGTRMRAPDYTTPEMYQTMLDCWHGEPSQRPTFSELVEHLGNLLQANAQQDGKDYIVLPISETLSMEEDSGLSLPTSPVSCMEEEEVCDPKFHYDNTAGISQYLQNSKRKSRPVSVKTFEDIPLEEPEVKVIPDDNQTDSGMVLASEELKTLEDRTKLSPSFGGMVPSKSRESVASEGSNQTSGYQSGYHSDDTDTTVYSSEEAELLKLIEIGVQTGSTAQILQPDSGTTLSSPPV
Experimental: VEGF Receptor-2 Kinase Assay
Recombinant VEGF receptor tyrosine kinase-2 was purified as a GST fusion protein from baculovirus-infected insect cells (Sf9). Poly-(Glu4Tyr), which was used as a kinase substrate, was purchased by the Sigma Company. VEGF receptor tyrosine kinase (90 ng/measuring point) was incubated for 10 minutes at 22° C. in the presence of various concentrations of test substances (0 μm, as well as within the range of 0.001-30 μm) in 30 μl of assay buffer [40 mmol of Tris/HCl, pH 5.5, 10 mmol of MgCl2, 1 mmol of MnCl2, 3 μmol of Na ortho-vanadate, 1.0 mmol of dithiothreitol, 8 μmol of adenosine trisphosphate (ATP), 0.96 μg/measuring point of poly-(Glu4Tyr), 0.2 μCi/measuring point of 33P-gamma ATP, 1.4% dimethyl sulfoxide]. The reaction was stopped by adding EDTA solution (250 mmol, pH 8.0, 15 μl/measuring point).
as §2

| IC50 [1] | IC50 [2] | IC50 [3] | IC50 [5] | IC50 [6] | IC50 [7] | IC50 [8] | Structure (SMILES) | IC50 [4] |
| --- | --- | --- | --- | --- | --- | --- | --- | --- |
| 530 nM | < 10 nM | 150 nM | 200 nM | 180 nM | < 10 nM | 250 nM | C[C@@H](Nc1nc(Nc2ccc(S(N)(=O)=O)cc2)ncc1Br)C(C)(C)O [Example 271 from WO 02/096888, 4-[5-Bromo-4-((R)-2-hydroxy-1,2-dimethyl-propylamino)-pyrimidin-2-ylamino]-benzenesulfonamide, reference compound] | < 100 nM |
| 810 nM | < 10 nM | 70 nM | 40 nM | 50 nM | < 10 nM | 130 nM | C[C@@H](O)[C@@H](C)Nc1nc(Nc2ccc(S(N)(=O)=O)cc2)ncc1Br [Example 275 from WO 02/096888, 4-[5-Bromo-4-((1R,2R)-2-hydroxy-1-methyl-propylamino)-pyrimidin-2-ylamino]-benzenesulfonamide, reference compound] | 20 nM |
| > 10000 nM | 3 nM | 90 nM | 130 nM | < 100 nM | 2 nM | 20 nM | Cc1cc(Nc2ncc(Br)c(N[C@H](C)C(C)(C)O)n2)cc(C)c1S(N)(=O)=O [Example 2] | 70 nM |
| > 10000 nM | 15 nM | 400 nM | 300 nM | 600 nM | 14 nM | 18 nM | Cc1cc(Nc2ncc(Br)c(N[C@H](C)CO)n2)cc(C)c1S(N)(=O)=O [Example 1, 4-[5-Bromo-4-((R)-2-hydroxy-1-methyl-ethylamino)-pyrimidin-2-ylamino]-2,6-dimethyl-benzenesulfonamide] | 400 nM |
| 6000 nM | 12 nM | 160 nM | 160 nM | 120 nM | 15 nM | 56 nM | Cc1cc(Nc2ncc(Br)c(O[C@H](C)[C@@H](C)O)n2)cc(Br)c1S(N)(=O)=O [Example 7] | 50 nM |
| > 10000 nM | 8 nM | 50 nM | 50 nM | 50 nM | 8 nM | 39 nM | Cc1cc(Nc2ncc(Br)c(O[C@H](C)[C@@H](C)O)n2)cc(C)c1S(N)(=O)=O [Example 6, 4-[5-Bromo-4-((1R,2R)-2-hydroxy-1-methyl-propoxy)-pyrimidin-2-ylamino]-2,6-dimethyl-benzenesulfonamide] | 20 nM |
| – | 5 nM | 100 nM | < 100 nM | 120 nM | 10 nM | 130 nM | Cc1cc(Nc2ncc(Br)c(N[C@H](C)[C@@H](C)O)n2)cc(Cl)c1S(N)(=O)=O [Example 4] | < 100 nM |
| > 10000 nM | 5 nM | 70 nM | 50 nM | < 100 nM | 6 nM | 19 nM | Cc1cc(Nc2ncc(Br)c(N[C@H](C)[C@@H](C)O)n2)cc(C)c1S(N)(=O)=O [Example 3] | 40 nM |
